According to patent publication US9359378B2, “Substituted oxazolo[3,4-a]pyrazines as pharmaceutcals” (BIOLAB SANUS FARMACÊUTICA LTDA., priority 2014, dated 2016):

Tested on: rabbit's corpus cavernosum
Assay: Relaxing effect in isolated rabbit's corpus cavernosum strips pre-contracted with phenylephrine (isometric tension)
Set-up: species or system New Zealand White rabbits
Conditions: strips pre-contracted with 1 μM PE; FIGS. 12 and 13
Protocol: For this study, New Zealand White rabbits (2 to 3.5 kg) were used to obtain penile tissue which was excised and transferred to a chilled Krebs solution. For this study, we used cavernosum strips (CC) of the penile tissue of New Zealand White rabbits. The strips were mounted in 10 ml tissue incubation chambers containing Krebs solution at 37° C., pH occurring between 7.3 and 7.5; continuously bubbled with a mixture of 95% oxygen (O2) and 5% carbon dioxide (CO2). An initial tension of 10 mN were applied on the tissues, followed by a 60 minute stabilization period. Changes in tension (isometric force) were obtained using isometric transducers (ADInstruments, Australia) and recorded in a data acquisition system PowerLab 4/30 (Chart Software, version 7.3.7, ADInstruments, MA, USA for BL-230 and version 7.0 ADInstruments, MA for the BL-236). […] Cumulative curve responses to the concentration of BL-230 compounds and tadalafil (0.001 to 10 μM) were obtained in the pre-contracted rabbit corpus cavernosum strips with 1 μM PE.

Which “percentage of relaxation in rabbit's corpus cavernosum” value does the source give for `CN1CC(=O)N2[C@H](c3ccc4c(c3)OCO4)c3[nH]c4ccccc4c3C[C@@H]2C1=O` [tadalafil, reference compound] here?
Its value is “around 100%”.
